Measured values: PMC10303920, “Competition between skin antimicrobial peptides and commensal bacteria in type 2 inflammation enables survival of S. aureus” (Cell reports, 2023)

Tests used:
ShA9-WT and ShA9-ΔLanti = experiment: Growth inhibition of ShA9-WT and ShA9-ΔLanti by human and murine AMPs (OD600); type: cell-based, Staphylococcus hominis; conditions: 90% RPMI/10% TSB, 30°C, 24 h, mean of duplicate technical replicates, Figure 4E
Procedure: Staphylococcus strains collected from normal skin from healthy subjects or lesional skin from AD patients were cultured in TSB overnight. Bacteria were washed with PBS and resuspended to 90% RPMI media and 10% TSB. Bacteria (1 × 10^5 CFU/mL) were incu bated with or without human AMPs (LL-37, hBD-2, hBD-3) or mouse cathelin-related AMP (CRAMP) in 90% RPMI media and 10% TSB (100 μL) in each well of a 96-well plate at 30°C for 24 h. Bacterial growth was assessed by measuring OD600. Minimal inhibitory concentration was defined as the lowest concentration which prevent visible bacterial growth (<5% of OD600 value of the con trol well).

[1] = system: CoNS-AM+ strains of S. epidermidis or S. hominis; experiment: Bacterial survival on pigskin, antibiotic-producing CoNS; type: cell-based; conditions: LL-37 2.5 nmol on 2.5 × 2.5 cm pigskin sheet, 1 × 10^6 CFU, 30°C, 24 h; Figure 4F
Procedure: Fresh-frozen pigskin sheets were obtained from Loretta Tomlin Animal Technologies (Livermore, CA) and sanitized by surgical brush with 3% chloroxylenol. The skin sheet was cut into 2.5 cm × 2.5 cm and rinsed with sterile PBS more than 20 times to remove chloroxylenol residue. Synthetic LL-37 (2.5nanomol/50μL H2O) or equal volume of vehicle was applied to the surface of sanitized pig skin. Antibiotic-producing or non-antibiotic-producing strain of CoNS (1 × 10^6 CFU/10μL PBS) was applied on the pigskin. Pigskin sheet was placed on a 6-well plate and incubated at 30°C for 24 h. The entire skin sheet was rubbed 50 times with nylon foam swab (Puritan) pre-moisturized with PBS to collect bacteria on the skin surface. Swab sample was suspended in 1mL of 85% TSB/15% glycerol and frozen until analysis.

ShA9-ΔLanti = experiment: Transmission electron microscopy of ShA9-ΔLanti; type: cell-based, Staphylococcus hominis; conditions: 30°C, 30 min, Figure 5C
Procedure: To observe the effect of synergistic antimicrobial action between host AMP and lantibiotic on ShA9, ShA9-DLanti mutant were incubated in 90% RPMI media/10% TSB containing LL-37 ([…]), ammonium sulfate precipitation fraction of conditioned media from ShA9-WT (25% calculated from the original volume of media), or combination at 30°C for 30 min. Bacterial cells were washed with PBS twice and immediately fixed by re-suspending in modified Karnovsky’s fixative for 4 h, followed by 1% osmium tetroxide in 0.1 M cacodylate buffer for 1 h on ice. The cells were stained with 2% uranyl acetate for 1 h on ice, dehydrated in a graded series of ethanol (50–100%), washed with acetone, and then embedded with Durcupan. Sections (60 nm) were post-stained with 2% uranyl acetate for 5 min and Sato’s lead stain for 1 min. Grids were viewed using a JEOL JEM-1400Plus (JEOL, Peabody, MA) transmission electron microscope and photographed using a Gatan OneView 4 K digital camera (Gatan, Pleasanton, CA).

[2] = system: CoNS with antimicrobial activity within the microbial community of human skin swabs; experiment: Effect of low dose LL-37 on mixed bacterial communities from healthy human forearm skin in vitro; type: cell-based, coagulase-negative Staphylococcus; conditions: skin swabs from forearms of 5 healthy subjects, media with a low dose of LL-37, 4 h; Figure 4H
Procedure: Finally, the capacity of AMPs to shape the composition of the skin CoNS community was evaluated by examining the effects of LL-37 on survival of mixed communities of bacteria obtained from human skin (Figure 4G). Skin swab samples were obtained from the forearms of 5 healthy subjects (Table S4), and these mixed bacterial samples were incubated in media without or with a low dose of LL-37 for 4 h.
Individual isolated colonies of CoNS from human skin were grown on mannitol-salt agar with egg yolk (pink color without egg yolk reaction), randomly picked and transferred to individual wells containing TSB (400μL) in a 96-well cluster tube. Each plate also contained wells with a non-antimicrobial strain of S. epidermidis (S. epidermidis 1457) as a negative control, a potent antimicrobial strain of Staphylococcus hominis (A9 strain) as positive control, and blank wells without bacteria. CoNS were cultured at 37°C overnight with shaking. Growth was evaluated by OD600. Bacteria were removed by centrifugation followed by sterile filtration with a 0.22μm membrane. Sterile conditioned media were mixed with fresh TSB at 1:1. The antimicrobial activity released from each CoNS clone was evaluated by culturing 1 × 10^4 CFU of S. aureus (ATCC35556) in 200μL of diluted conditioned media at 30°C for 24 h. […] To determine frequency of antimicrobial CoNS, up to 48 CoNS vvvcolonies were analyzed.

S. hominis C6 strain = experiment: Synergistic antimicrobial assay between LL-37 and Pep-5; type: cell-based, Staphylococcus hominis; conditions: strain lacking antimicrobial activity; 90% RPMI/10% TSB, 30°C, 24 h; Figure S9
Procedure: ShA9 or S. epidermidis A11 strains, lantibiotic producing CoNS, were cultured in TSB at 37°C with shake overnight. Bacteria were removed by centrifugation, followed by sterile filtration with 0.22μm membrane. Lantibiotics from each strain was precipitated by adding ammonium sulfate into the sterile conditioned media at 70% saturation. The ammonium sulfate precipitation of conditioned media were dissolved in 90% RPMI1640 supplemented by 10% TSB. ShA9-DLanti mutant or S. hominis C6 strain were cultured in TSB at 37°C overnight and washed with PBS. These strain was incubated with conditioned media precipitation (0–100%) along with […] of LL-37 in 90% RPMI/10% TSB at 30°C for 24 h. Concentration of conditioned media precipitation added was calculated based on the original volume of sterile conditioned media. Bacterial survival was evaluated by measuring OD600 or counting CFUs.

ShA9-WT = experiment: Transmission electron microscopy of ShA9-WT; type: cell-based, Staphylococcus hominis; conditions: LL-37 (2 μM), 30°C, 30 min; Figure 5B

Substance: LL-37
- Sensitivity of ShA9-WT to the AMP compared with ShA9-ΔLanti (growth inhibition) (ShA9-WT and ShA9-ΔLanti): more sensitive
- Survival of CoNS strains with antibiotic activity on pigskin [1]: inhibited survival
- Electron microscopy findings in ShA9-ΔLanti after exposure to the single agent alone (ShA9-ΔLanti; LL-37 or ShA9-CM alone): did not show these changes
- Electron microscopy findings in ShA9-ΔLanti after the combination of lantibiotic-containing CM and LL-37 (ShA9-ΔLanti; combination): promote membrane damage
- Relative proportion of CoNS with antimicrobial activity in mixed bacterial samples [2]: decreased
- Antimicrobial interaction of LL-37 combined with Pep-5 on S. hominis C6 (S. hominis C6 strain): synergy
- Electron microscopy findings in ShA9-WT after exposure (ShA9-WT): disruption of cytoplasmic membrane integrity and development of a mesosome-like structure within the cytosol
